Measurements from patent publication US20230322846A9, “NEUROACTIVE STEROIDS AND THEIR METHODS OF USE” (SAGE THERAPEUTICS, INC., priority 2018, published 2023).

What was measured:
[1] = molecular target: human GABAA receptors composed of the α4β3δ subunits (Homo sapiens (Human), UniProt O14764+P28472+P48169); assay: α4β3δ SyncroPatch automated patch clamp assay; assay type: cell-based; conditions: for EC50: HEK cells, potentiation of submaximal GABA current, clamped at −120 mV; for α4β3δ EMAX: peak current after GABA+compound divided by peak current after GABA alone
Sequence of human GABAA receptors composed of the α4β3δ subunits (P48169 36-554 limits assumed): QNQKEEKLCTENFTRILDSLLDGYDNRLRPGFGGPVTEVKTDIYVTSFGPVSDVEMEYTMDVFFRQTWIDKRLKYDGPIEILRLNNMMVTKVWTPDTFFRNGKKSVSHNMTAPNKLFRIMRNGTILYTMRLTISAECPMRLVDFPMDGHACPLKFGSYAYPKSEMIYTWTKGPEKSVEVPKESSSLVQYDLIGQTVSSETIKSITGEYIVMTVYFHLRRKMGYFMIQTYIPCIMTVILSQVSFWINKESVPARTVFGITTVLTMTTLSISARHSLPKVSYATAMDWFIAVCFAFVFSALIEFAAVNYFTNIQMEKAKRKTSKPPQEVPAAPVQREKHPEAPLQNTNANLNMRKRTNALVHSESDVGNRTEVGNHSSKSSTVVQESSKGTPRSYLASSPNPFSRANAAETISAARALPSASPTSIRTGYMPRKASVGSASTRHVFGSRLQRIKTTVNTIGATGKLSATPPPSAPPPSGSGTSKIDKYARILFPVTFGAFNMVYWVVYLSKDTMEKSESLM
Sequence of human GABAA receptors composed of the α4β3δ subunits (P28472 26-473 limits assumed): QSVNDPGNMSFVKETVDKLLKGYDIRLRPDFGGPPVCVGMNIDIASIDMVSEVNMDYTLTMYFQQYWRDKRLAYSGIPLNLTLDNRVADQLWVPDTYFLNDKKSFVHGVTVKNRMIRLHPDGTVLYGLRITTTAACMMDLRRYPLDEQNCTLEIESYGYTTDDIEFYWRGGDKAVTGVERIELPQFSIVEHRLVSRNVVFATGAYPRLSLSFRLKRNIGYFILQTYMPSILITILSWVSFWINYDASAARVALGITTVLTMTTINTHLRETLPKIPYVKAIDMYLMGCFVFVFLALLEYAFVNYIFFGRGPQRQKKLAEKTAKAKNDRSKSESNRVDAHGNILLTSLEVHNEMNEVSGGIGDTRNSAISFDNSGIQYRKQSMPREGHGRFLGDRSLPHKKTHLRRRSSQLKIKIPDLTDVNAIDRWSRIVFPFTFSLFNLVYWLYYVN
Sequence of human GABAA receptors composed of the α4β3δ subunits (O14764 17-452 limits assumed): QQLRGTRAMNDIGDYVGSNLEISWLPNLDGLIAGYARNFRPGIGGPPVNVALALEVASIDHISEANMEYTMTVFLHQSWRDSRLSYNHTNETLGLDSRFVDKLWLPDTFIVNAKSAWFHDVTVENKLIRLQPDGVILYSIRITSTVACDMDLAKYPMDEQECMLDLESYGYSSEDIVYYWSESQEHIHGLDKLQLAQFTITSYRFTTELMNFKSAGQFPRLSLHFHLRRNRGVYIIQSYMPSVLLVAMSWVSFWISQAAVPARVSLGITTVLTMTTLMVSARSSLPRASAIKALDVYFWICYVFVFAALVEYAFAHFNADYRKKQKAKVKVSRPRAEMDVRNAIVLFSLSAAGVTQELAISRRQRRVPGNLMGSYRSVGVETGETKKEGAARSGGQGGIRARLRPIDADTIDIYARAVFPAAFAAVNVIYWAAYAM
Protocol: (§1) The SyncroPatch 384PE (Nanion, Germany) automated patch clamp platform was used to obtain recordings from human embryonic kidney cells stably expressing human GABAA receptors composed of the α1β2γ2 and α4β3δ subunits. Cells were bathed in an extracellular solution containing: 140 mM NaCl, 4 mM KCl, 2 mM CaCl2), 1 mM MgCl2, 10 mM HEPES, 5 mM glucose and 0.1% DMSO. Solution was maintained at pH 7.4 with NaOH and 300 mOsm/L. Chips with multi-hole (4×) medium resistance (2-3M) are used for the recombinant cell line experiments. Once harvested, cells are stored in extracellular solution set to 10° C. in the cell hotel with a minimum shaking speed of 200 rpm before addition to the chip at the beginning of each experiment. Whole cell patch clamp recordings were made using an intracellular solution containing: 90 mM KCl, 50 mM KF, 1.5 mM MgCl2, 11.1 mM EGTA and 10 mM HEPES, 2 mM NaATP, maintained at pH 7.2 with KOH. Currents are leak corrected (using P/2 leak correction protocol) and sampled at 5 kHz. Cells were clamped at −120 mV. After establishing a stable baseline, a submaximal concentration of GABA (3-5 μM for cells expressing α1β2γ2 and 10 μM for cells expressing […]) was applied at a rate of 10 μl/second, immediately followed by application of GABA+compound (10 μl/second) at a single concentration of compound per cell. Compounds were tested at six concentrations (0.029, 0.12, 0.47, 1.88, 7.5, and 30 μM) in n=8-12 cells per concentration. Compound effect was determined by dividing peak current amplitude after GABA+compound by peak current amplitude after GABA alone. EC50 and Emax values were determined from average values for each concentration.

[2] = molecular target: human GABAA receptors composed of the α1β2γ2 subunits (Homo sapiens (Human), UniProt P14867+P18507+P47870); assay: α1β2γ2 SyncroPatch automated patch clamp assay; assay type: cell-based; conditions: for EC50: HEK cells, potentiation of submaximal GABA current, clamped at −120 mV; for α1β2γ2 EMAX: peak current after GABA+compound divided by peak current after GABA alone
Sequence of human GABAA receptors composed of the α1β2γ2 subunits (P14867 28-456 limits assumed): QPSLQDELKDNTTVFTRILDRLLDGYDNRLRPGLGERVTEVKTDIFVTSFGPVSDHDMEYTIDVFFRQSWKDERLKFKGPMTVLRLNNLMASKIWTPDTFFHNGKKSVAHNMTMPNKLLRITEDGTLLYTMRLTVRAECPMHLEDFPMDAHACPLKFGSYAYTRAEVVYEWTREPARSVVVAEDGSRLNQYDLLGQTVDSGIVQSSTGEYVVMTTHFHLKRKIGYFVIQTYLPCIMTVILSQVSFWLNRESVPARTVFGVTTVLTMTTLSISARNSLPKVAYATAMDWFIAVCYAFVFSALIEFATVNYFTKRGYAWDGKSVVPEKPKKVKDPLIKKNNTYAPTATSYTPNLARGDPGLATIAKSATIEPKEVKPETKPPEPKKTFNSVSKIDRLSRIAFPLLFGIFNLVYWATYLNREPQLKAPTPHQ
Sequence of human GABAA receptors composed of the α1β2γ2 subunits (P47870 25-512 limits assumed): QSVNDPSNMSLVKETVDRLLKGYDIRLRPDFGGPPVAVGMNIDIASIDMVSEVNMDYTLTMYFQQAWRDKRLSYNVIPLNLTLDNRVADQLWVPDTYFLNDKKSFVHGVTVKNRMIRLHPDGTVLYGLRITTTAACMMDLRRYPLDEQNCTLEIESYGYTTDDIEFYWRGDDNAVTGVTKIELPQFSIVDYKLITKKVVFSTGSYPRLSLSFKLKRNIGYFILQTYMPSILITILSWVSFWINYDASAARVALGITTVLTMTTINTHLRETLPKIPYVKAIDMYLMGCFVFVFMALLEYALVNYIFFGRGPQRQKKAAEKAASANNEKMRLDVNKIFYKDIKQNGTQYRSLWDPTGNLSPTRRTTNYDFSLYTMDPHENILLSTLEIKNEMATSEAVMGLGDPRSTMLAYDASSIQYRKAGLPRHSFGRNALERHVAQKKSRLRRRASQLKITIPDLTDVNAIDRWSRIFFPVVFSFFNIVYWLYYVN
Sequence of human GABAA receptors composed of the α1β2γ2 subunits (P18507 40-475 limits assumed): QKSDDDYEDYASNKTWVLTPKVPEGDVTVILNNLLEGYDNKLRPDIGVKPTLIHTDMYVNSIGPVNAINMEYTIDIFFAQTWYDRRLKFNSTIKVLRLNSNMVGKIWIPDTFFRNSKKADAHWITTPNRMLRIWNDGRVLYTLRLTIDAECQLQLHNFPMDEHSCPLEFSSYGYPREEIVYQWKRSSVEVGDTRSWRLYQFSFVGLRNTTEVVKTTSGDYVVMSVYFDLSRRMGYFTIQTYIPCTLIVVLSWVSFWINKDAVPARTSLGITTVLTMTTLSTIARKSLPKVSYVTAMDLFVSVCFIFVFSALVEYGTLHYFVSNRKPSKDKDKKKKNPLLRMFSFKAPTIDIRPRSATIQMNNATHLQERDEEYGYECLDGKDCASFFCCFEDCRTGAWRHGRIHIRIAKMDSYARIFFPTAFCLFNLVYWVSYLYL
Protocol: as §1

[3] = molecular target: [35S]-TBPS binding, rat brain cortical membranes; assay: Steroid inhibition of [35S]-TBPS binding; conditions: 3 nM [35S]-TBPS, in the presence of 5 mM GABA
Procedure, shortened: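 Rat cortical P2 membranes incubated 90 min at room temperature with 3 nM [35S]-TBPS, […] and test compound (0.5% DMSO final) in NaCl/Na–K phosphate pH 7.4; nonspecific binding with […]. Filter-bound radioactivity counted; IC50 and Imax from nonlinear fits, mean ± SEM.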

**Q.** Which results are given for Cc1cnc(C[C@H](C)[C@H]2CC[C@H]3[C@@H]4CC[C@@H]5C[C@](C)(O)CC[C@@H]5[C@H]4CC[C@]23C)cn1 [Example 439]?
**A.** EC50 [1]: < 0.2 µM; α4β3δ EMAX [1]: C (C indicates an Emax response ≥45); EC50 [2]: < 0.2 µM; α1β2γ2 EMAX [2]: C (C indicates an Emax response ≥10); IC50 [3]: < 0.1 µM

**Q.** Which EC50 [1] does the source give for C[C@@H](Cn1cc(C#N)cn1)[C@H]1CC[C@H]2[C@@H]3CC[C@@H]4C[C@@](O)(CC5CC5)CC[C@@H]4[C@H]3CC[C@]12C [Example 303, 1-((R)-2-((3S,5R,8R,9R,10S,13S,14S,17R)-3-(cyclopropylmethyl)-3-hydroxy-13-methylhexadecahydro-1H-cyclopenta[a]phenanthren-17-yl)propyl)-1H-pyrazole-4-carbonitrile] here?
**A.** The EC50 was under 0.2 µM.

**Q.** What about the “α4β3δ EMAX” value [1] of the same compound?
**A.** The value was “B (B indicates an Emax response 30 to <45)”.

**Q.** And the EC50 [2]?
**A.** The EC50 was under 0.2 µM.

**Q.** What about the “α1β2γ2 EMAX” value [2] of the same compound?
**A.** The value was “C (C indicates an Emax response ≥10)”.

**Q.** And the IC50 [3]?
**A.** Its IC50 is under 0.1 µM.

**Q.** How did the EC50 [1] turn out when CCOC[C@@]1(O)CC[C@H]2[C@H](CC[C@@H]3[C@@H]2CC[C@]2(C)[C@@H]([C@H](Cn4cc(C#N)cn4)C(F)(F)F)CC[C@@H]32)C1 [Example 357, 1-((R)-2-((3R,5R,8R,9R,10S,13S,14S,17R)-3-(ethoxymethyl)-3-hydroxy-13-methylhexadecahydro-1H-cyclopenta[a]phenanthren-17-yl)-3,3,3-trifluoropropyl)-1H-pyrazole-4-carbonitrile] was run?
**A.** Its EC50 is 0.2 to 1 µM.

**Q.** And the “α4β3δ EMAX” value [1]?
**A.** The value was “B (B indicates an Emax response 30 to <45)”.

**Q.** What about the EC50 [2] of the same compound?
**A.** Its EC50 is 0.2 to 1 µM.

**Q.** And the “α1β2γ2 EMAX” value [2]?
**A.** The value was “B (B indicates an Emax response 8 to <10)”.

**Q.** And the IC50 [3]?
**A.** The IC50 was 0.1 to 1 µM.

**Q.** CCC[C@@]1(O)CC[C@H]2[C@H](CC[C@@H]3[C@@H]2CC[C@]2(C)[C@@H]([C@@H](C)Cn4cc(C#N)cn4)CC[C@@H]32)C1 [Example 65, 1-((R)-2-((3R,5R,8R,9R,10S,13S,14S,17R)-3-hydroxy-13-methyl-3-propylhexadecahydro-1H-cyclopenta[a]phenanthren-17-yl)propyl)-1H-pyrazole-4-carbonitrile] was tested. Which EC50 [1] did it give?
**A.** The EC50 was under 0.2 µM.

**Q.** And the “α4β3δ EMAX” value [1]?
**A.** Its value is “B (B indicates an Emax response 30 to <45)”.

**Q.** What about the EC50 [2] of the same compound?
**A.** Its EC50 is at least 1 µM.

**Q.** What about the “α1β2γ2 EMAX” value [2] of the same compound?
**A.** The value was “A (A indicates an Emax response <8)”.

**Q.** What about the IC50 [3] of the same compound?
**A.** The IC50 was under 0.1 µM.

**Q.** Which EC50 [1] does the source give for Cc1cnc(C[C@H](C)[C@H]2CC[C@H]3[C@@H]4CC[C@@H]5C[C@](C)(O)CC[C@@H]5[C@H]4CC[C@]23C)s1 [Example 430] here?
**A.** The EC50 was under 0.2 µM.

**Q.** And the “α4β3δ EMAX” value [1]?
**A.** Its value is “A (A indicates an Emax response <30)”.

**Q.** And the EC50 [2]?
**A.** Its EC50 is 0.2 to 1 µM.

**Q.** And the “α1β2γ2 EMAX” value [2]?
**A.** The value was “B (B indicates an Emax response 8 to <10)”.

**Q.** What about the IC50 [3] of the same compound?
**A.** The IC50 was 0.1 to 1 µM.

**Q.** For CCC[C@@]1(O)CC[C@H]2[C@H](CC[C@@H]3[C@@H]2CC[C@]2(C)[C@@H]([C@H](C)Cn4nnc(C)n4)CC[C@@H]32)C1 [Example 293, (3R,5R,8R,9R,10S,13S,14S,17R)-13-methyl-17-((S)-1-(5-methyl-2H-tetrazol-2-yl)propan-2-yl)-3-propylhexadecahydro-1H-cyclopenta[a]phenanthren-3-ol], which EC50 [1] is on record?
**A.** The EC50 was 0.2 to 1 µM.

**Q.** And the “α4β3δ EMAX” value [1]?
**A.** Its value is “A (A indicates an Emax response <30)”.

**Q.** What about the EC50 [2] of the same compound?
**A.** The EC50 was at least 1 µM.

**Q.** And the “α1β2γ2 EMAX” value [2]?
**A.** The value was “A (A indicates an Emax response <8)”.

**Q.** And the IC50 [3]?
**A.** The IC50 was under 0.1 µM.

**Q.** With C[C@H](Cc1cncc(C#N)c1)[C@H]1CC[C@H]2[C@@H]3CC[C@@H]4C[C@](C)(O)CC[C@@H]4[C@H]3CC[C@]12C [Example 406, 5-((R)-2-((3R,5R,8R,9R,10S,13R,14S,17R)-3-hydroxy-3,13-dimethylhexadecahydro-1H-cyclopenta[a]phenanthren-17-yl)propyl)nicotinonitrile] as the compound, how does the EC50 [1] read?
**A.** The EC50 was under 0.2 µM.

**Q.** And the “α4β3δ EMAX” value [1]?
**A.** The value was “B (B indicates an Emax response 30 to <45)”.

**Q.** What about the EC50 [2] of the same compound?
**A.** The EC50 was under 0.2 µM.

**Q.** And the “α1β2γ2 EMAX” value [2]?
**A.** The value was “A (A indicates an Emax response <8)”.

**Q.** And the IC50 [3]?
**A.** The IC50 was under 0.1 µM.

**Q.** Which EC50 [1] does the source give for CCCC[C@@]1(O)CC[C@H]2[C@H](CC[C@@H]3[C@@H]2CC[C@]2(C)[C@@H]([C@@H](C)Cn4cc(C#N)cn4)CC[C@@H]32)C1 [Example 311, 1-((R)-2-((3R,5R,8R,9R,10S,13S,14S,17R)-3-butyl-3-hydroxy-13-methylhexadecahydro-1H-cyclopenta[a]phenanthren-17-yl)propyl)-1H-pyrazole-4-carbonitrile] here?
**A.** Its EC50 is 0.2 to 1 µM.

**Q.** And the “α4β3δ EMAX” value [1]?
**A.** The value was “B (B indicates an Emax response 30 to <45)”.

**Q.** What about the EC50 [2] of the same compound?
**A.** The EC50 was under 0.2 µM.

**Q.** What about the “α1β2γ2 EMAX” value [2] of the same compound?
**A.** Its value is “C (C indicates an Emax response ≥10)”.

**Q.** And the IC50 [3]?
**A.** The IC50 was under 0.1 µM.

**Q.** What does the source list for CCOC[C@@]1(O)CC[C@H]2[C@H](CC[C@@H]3[C@@H]2CC[C@]2(C)[C@@H]([C@H](CC)Cn4ccc(C#N)n4)CC[C@@H]32)C1 [Example 499, 1-((S)-2-((3R,5R,8R,9R,10S,13S,14S,17R)-3-(ethoxymethyl)-3-hydroxy-13-methylhexadecahydro-1H-cyclopenta[a]phenanthren-17-yl)butyl)-1H-pyrazole-3-carbonitrile]?
**A.** EC50 [1]: < 0.2 µM; α4β3δ EMAX [1]: A (A indicates an Emax response <30); EC50 [2]: < 0.2 µM; α1β2γ2 EMAX [2]: A (A indicates an Emax response <8); IC50 [3]: < 0.1 µM

**Q.** For C[C@@H](Cc1ccc(C(F)(F)F)nc1)[C@H]1CC[C@H]2[C@@H]3CC[C@@H]4C[C@](C)(O)CC[C@@H]4[C@H]3CC[C@]12C [Example 443], which EC50 [1] is on record?
**A.** The EC50 was under 0.2 µM.

**Q.** What about the “α4β3δ EMAX” value [1] of the same compound?
**A.** The value was “B (B indicates an Emax response 30 to <45)”.

**Q.** What about the EC50 [2] of the same compound?
**A.** The EC50 was under 0.2 µM.

**Q.** What about the “α1β2γ2 EMAX” value [2] of the same compound?
**A.** The value was “C (C indicates an Emax response ≥10)”.

**Q.** What about the IC50 [3] of the same compound?
**A.** The IC50 was under 0.1 µM.

**Q.** For CC(C)C[C@@]1(O)CC[C@H]2[C@H](CC[C@@H]3[C@@H]2CC[C@]2(C)[C@@H]([C@@H](C)Cn4cc(C#N)cn4)CC[C@@H]32)C1 [Example 299, 1-((R)-2-((3S,5R,8R,9R,10S,13S,14S,17R)-3-hydroxy-3-isobutyl-13-methylhexadecahydro-1H-cyclopenta[a]phenanthren-17-yl)propyl)-1H-pyrazole-4-carbonitrile], which EC50 [1] is on record?
**A.** Its EC50 is under 0.2 µM.

**Q.** What about the “α4β3δ EMAX” value [1] of the same compound?
**A.** The value was “B (B indicates an Emax response 30 to <45)”.

**Q.** And the EC50 [2]?
**A.** The EC50 was at least 1 µM.

**Q.** What about the IC50 [3] of the same compound?
**A.** Its IC50 is under 0.1 µM.

**Q.** How did the EC50 [1] turn out when CCOC[C@@]1(O)CC[C@H]2[C@H](CC[C@@H]3[C@@H]2CC[C@]2(C)[C@@H]([C@@H](C)Cc4cccc(C#N)n4)CC[C@@H]32)C1 [Example 413] was run?
**A.** Its EC50 is under 0.2 µM.

**Q.** And the “α4β3δ EMAX” value [1]?
**A.** The value was “B (B indicates an Emax response 30 to <45)”.

**Q.** What about the EC50 [2] of the same compound?
**A.** Its EC50 is under 0.2 µM.

**Q.** And the “α1β2γ2 EMAX” value [2]?
**A.** The value was “C (C indicates an Emax response ≥10)”.

**Q.** And the IC50 [3]?
**A.** Its IC50 is under 0.1 µM.

**Q.** CC[C@@]1(O)CC[C@@]2(C)[C@H](CC[C@@H]3[C@@H]2CC[C@]2(C)[C@@H]([C@@H](C)Cn4ccc(C#N)n4)CC[C@@H]32)C1 [Example 61, 1-((R)-2-((3R,5R,8R,9S,10S,13S,14S,17R)-3-ethyl-3-hydroxy-10,13-dimethylhexadecahydro-1H-cyclopenta[a]phenanthren-17-yl)propyl)-1H-pyrazole-3-carbonitrile] was tested. Which EC50 [1] did it give?
**A.** Its EC50 is under 0.2 µM.

**Q.** What about the “α4β3δ EMAX” value [1] of the same compound?
**A.** Its value is “A (A indicates an Emax response <30)”.

**Q.** And the EC50 [2]?
**A.** The EC50 was under 0.2 µM.

**Q.** And the “α1β2γ2 EMAX” value [2]?
**A.** The value was “C (C indicates an Emax response ≥10)”.

**Q.** And the IC50 [3]?
**A.** Its IC50 is under 0.1 µM.
